Read-outs that look alike come from different tables or passages of the source.
Tests used:
Format in all cases: cell-based
HeLa-APL = experiment: SRB colorimetric cell growth inhibition assay, HeLa-APL (aplidine resistant); details: Homo sapiens; for GI50: read-out: GI50 HELA-APL; for CC50: read-out: LC50 HELA-APL; for IC (TGI): read-out: TGI HELA-APL
Description: (§1) The finality of these assays is to interrupt the growth of an “in vitro” tumor cell culture by means a continued exhibition of the cells to the sample to be testing.
(§2) A colorimetric type of assay, using sulforhodamine B (SRB) reaction has been adapted for a quantitative measurement of cell growth and viability (following the technique described by P. A. Skehan, et al., J. Natl. Cancer Inst. 1990, 82, 1107-1112).
(§3) This form of assay employs 96 well cell culture microplates of 9 mm diameter (T. Mosmann et al., J. of Immunological Methods 1983, 65, 55-63; G. T. Faircloth et al., J. of Tissue and Culture Methods 1988, 11, 201-205).
(§4) Most of the cell lines are obtained from American Type Culture Collection (ATCC) derived from different human cancer types.
(§5) The values for mean +/− SD of data from triplicate wells are calculated. Some parameters for cellular responses can be calculated: GI=growth inhibition, TGI=total growth inhibition (cytostatic effect) and LC=cell killing (cytotoxic effect).

SK-BR-3 = experiment: SRB colorimetric cell growth inhibition assay, SK-BR-3; details: for GI50: GI=growth inhibition, read-out: GI50 SK-BR-3; for CC50: cell killing (cytotoxic effect), read-out: LC50 SK-BR-3; for IC (TGI): read-out: TGI SK-BR-3
Description: as §1, §2, §3, §4, §5

HeLa = experiment: SRB colorimetric cell growth inhibition assay, HeLa; details: Homo sapiens, HeLa; for CC50: read-out: LC50 HELA; for IC (TGI): read-out: TGI HELA; for GI50: GI=growth inhibition, read-out: GI50 HELA
Description: as §1, §2, §3, §4, §5

IGROV = experiment: SRB colorimetric cell growth inhibition assay, IGROV; details: IGROV; for GI50: GI=growth inhibition, read-out: GI50 IGROV; for CC50: cell killing (cytotoxic effect), read-out: LC50 IGROV; for IC (TGI): read-out: TGI IGROV
Description: as §1, §2, §3, §4, §5

DU-145 = experiment: SRB colorimetric cell growth inhibition assay, DU-145; details: for CC50: cell killing (cytotoxic effect), read-out: LC50 DU-145; for GI50: GI=growth inhibition, read-out: GI50 DU-145; for IC (TGI): read-out: TGI DU-145
Description: as §1, §2, §3, §4, §5

A-549 = experiment: SRB colorimetric cell growth inhibition assay, A-549; details: for GI50: GI=growth inhibition, read-out: GI50 A-549; for CC50: cell killing (cytotoxic effect), read-out: LC50 A-549; for IC (TGI): total growth inhibition (cytostatic effect), read-out: TGI A-549
Description: as §1, §2, §3, §4, §5

IGROV-ET = experiment: SRB colorimetric cell growth inhibition assay, IGROV-ET (ET-743 resistant); details: IGROV-ET; for GI50: GI=growth inhibition, read-out: GI50 IGROV-ET; for CC50: cell killing (cytotoxic effect), read-out: LC50 IGROV-ET; for IC (TGI): read-out: TGI IGROV-ET
Description: as §1, §2, §3, §4, §5

HT-29 = experiment: SRB colorimetric cell growth inhibition assay, HT-29; details: for GI50: GI=growth inhibition, read-out: GI50 HT-29; for CC50: cell killing (cytotoxic effect), read-out: LC50 HT-29; for IC (TGI): read-out: TGI HT-29
Description: as §1, §2, §3, §4, §5

PANC-1 = experiment: SRB colorimetric cell growth inhibition assay, PANC-1; details: for GI50: GI=growth inhibition, read-out: GI50 PANC-1; for CC50: cell killing (cytotoxic effect), read-out: LC50 PANC-1; for IC (TGI): read-out: TGI PANC-1
Description: as §1, §2, §3, §4, §5

LoVo = experiment: SRB colorimetric cell growth inhibition assay, LoVo; details: for GI50: GI=growth inhibition, read-out: GI50 LOVO; for CC50: cell killing (cytotoxic effect), read-out: LC50 LOVO; for IC (TGI): read-out: TGI LOVO
Description: as §1, §2, §3, §4, §5

SK-MEL-28 = experiment: SRB colorimetric cell growth inhibition assay, SK-MEL-28; details: for GI50: GI=growth inhibition, read-out: GI50 MEL-28; for CC50: cell killing (cytotoxic effect), read-out: LC50 MEL-28; for IC (TGI): read-out: TGI MEL-28
Description: as §1, §2, §3, §4, §5

LoVo-Dox = experiment: SRB colorimetric cell growth inhibition assay, LoVo-Dox (MDR); details: LOVO-DOX; for GI50: GI=growth inhibition, read-out: GI50 LOVO-DOX; for CC50: cell killing (cytotoxic effect), read-out: LC50 LOVO-DOX; for IC (TGI): read-out: TGI LOVO-DOX
Description: as §1, §2, §3, §4, §5

[1] = total growth inhibition (cytostatic effect)
[2] = HELA-APL, cell killing (cytotoxic effect)
[3] = HELA-APL, total growth inhibition (cytostatic effect)
[4] = Homo sapiens, SK-BR-3, SK-BR-3, total growth inhibition (cytostatic effect)
[5] = cell killing (cytotoxic effect)
[6] = Homo sapiens, total growth inhibition (cytostatic effect)
[7] = Homo sapiens, DU-145, DU-145, total growth inhibition (cytostatic effect)
[8] = Homo sapiens, HT-29, HT-29, total growth inhibition (cytostatic effect)
[9] = Homo sapiens, PANC-1, PANC-1, total growth inhibition (cytostatic effect)
[10] = Homo sapiens, LoVo, total growth inhibition (cytostatic effect)
[11] = Homo sapiens, SK-MEL-28, MEL-28
[12] = Homo sapiens, SK-MEL-28, MEL-28, total growth inhibition (cytostatic effect)

COc1cc2ccn3c(c(-c4ccc(OC(=O)[C@@H](N)Cc5ccccc5)c(OC)c4)c4c5cc(OC)c(OC(=O)[C@@H](N)Cc6ccccc6)cc5oc(=O)c43)c2cc1OC [Compound 13]
GI50 (HeLa-APL): 2.6 µM | CC50 (HeLa-APL): 12.4 µM | IC (TGI) (HeLa-APL): 12.1 µM | GI50 (SK-BR-3; SK-BR-3): 0.0454 µM | CC50 (SK-BR-3; SK-BR-3): 10.2 µM | TGI SK-BR-3 (SK-BR-3; SK-BR-3, total growth inhibition (cytostatic effect)): 1.13E−07 Molar | CC50 (HeLa): 12.4 µM | IC (TGI) (HeLa): 9.63 µM | GI50 (HeLa): 1.83 µM | GI50 (IGROV; Homo sapiens): 1.29 µM | CC50 (IGROV): 12.4 µM | TGI IGROV (IGROV; [1]): 4.79E−06 Molar | CC50 (DU-145; DU-145): 12.4 µM | TGI DU-145 (DU-145; DU-145, total growth inhibition (cytostatic effect)): 3.64E−06 Molar | GI50 (DU-145; Homo sapiens, DU-145, DU-145): 0.832 µM | GI50 (A-549; A-549): 0.906 µM | CC50 (A-549; A-549): 12.4 µM | IC (TGI) (A-549; Homo sapiens, A549, A-549): 12.4 µM | GI50 (IGROV-ET; Homo sapiens): 1.96 µM | CC50 (IGROV-ET): 12.4 µM | TGI IGROV-ET (IGROV-ET; [1]): 7.86E−06 Molar | GI50 (HT-29; HT-29): 3.22 µM | CC50 (HT-29; HT-29): 12.4 µM | TGI HT-29 (HT-29; HT-29, total growth inhibition (cytostatic effect)): 6.39E−06 Molar | GI50 (PANC-1; PANC-1): 2.43 µM | CC50 (PANC-1; PANC-1): 12.4 µM | TGI PANC-1 (PANC-1; PANC-1, total growth inhibition (cytostatic effect)): 1.24E−05 Molar | GI50 (LoVo; LOVO): 0.754 µM | CC50 (LoVo; LOVO): 9.02 µM | TGI LOVO (LoVo; LOVO, total growth inhibition (cytostatic effect)): 2.35E−06 Molar | GI50 (SK-MEL-28; MEL-28): 3.11 µM | CC50 (SK-MEL-28; MEL-28): 12.4 µM | TGI MEL-28 (SK-MEL-28; MEL-28, total growth inhibition (cytostatic effect)): 1.09E−05 Molar | GI50 (LoVo-Dox): 0.675 µM | CC50 (LoVo-Dox): 12.4 µM | TGI LOVO-DOX (LoVo-Dox; [1]): 3.42E−06 Molar

CCCCCCCC(=O)Oc1ccc(-c2c3n(c4c(=O)oc5cc(OC(=O)CCCCCCC)c(OC)cc5c24)CCc2cc(OC(=O)CCCCCCC)c(OC)cc2-3)cc1OC [Compound 28]
GI50 (HeLa-APL; HELA-APL, GI=growth inhibition): 9.53 µM | CC50 (HeLa-APL; [2]): 11.4 µM | IC (TGI) (HeLa-APL; [3]): 11.4 µM | GI50 (SK-BR-3; Homo sapiens, SK-BR-3, SK-BR-3): 0.941 µM | CC50 (SK-BR-3; Homo sapiens, SK-BR-3, SK-BR-3): 11.4 µM | IC (TGI) (SK-BR-3; [4]): 4.73 µM | GI50 (HeLa): 2.76 µM | CC50 (HeLa; [5]): 11.4 µM | IC (TGI) (HeLa; [1]): 9.24 µM | GI50 (IGROV; Homo sapiens): 1.64 µM | CC50 (IGROV; Homo sapiens): 9.61 µM | IC (TGI) (IGROV; [6]): 3.97 µM | GI50 (DU-145; Homo sapiens, DU-145, DU-145): 0.315 µM | CC50 (DU-145; Homo sapiens, DU-145, DU-145): 7.32 µM | IC (TGI) (DU-145; [7]): 1.47 µM | GI50 (A-549; Homo sapiens, A549, A-549): 1.39 µM | CC50 (A-549; Homo sapiens, A549, A-549): 11.4 µM | IC (TGI) (A-549; Homo sapiens, A549, A-549): 11.4 µM | GI50 (IGROV-ET; Homo sapiens): 11.4 µM | CC50 (IGROV-ET; Homo sapiens): 11.4 µM | IC (TGI) (IGROV-ET; [6]): 11.4 µM | GI50 (HT-29; Homo sapiens, HT-29, HT-29): 0.111 µM | CC50 (HT-29; Homo sapiens, HT-29, HT-29): 11.4 µM | IC (TGI) (HT-29; [8]): 1.2 µM | GI50 (PANC-1; Homo sapiens, PANC-1, PANC-1): 1.91 µM | CC50 (PANC-1; Homo sapiens, PANC-1, PANC-1): 11.4 µM | IC (TGI) (PANC-1; [9]): 11.4 µM | GI50 (LoVo; Homo sapiens, LoVo): 0.634 µM | CC50 (LoVo; Homo sapiens, LoVo): 11.4 µM | IC (TGI) (LoVo; [10]): 5.16 µM | GI50 (SK-MEL-28; [11]): 2.24 µM | CC50 (SK-MEL-28; [11]): 11.4 µM | IC (TGI) (SK-MEL-28; [12]): 7.28 µM | GI50 (LoVo-Dox; Homo sapiens): 11.4 µM | CC50 (LoVo-Dox; Homo sapiens): 11.4 µM | IC (TGI) (LoVo-Dox; [6]): 11.4 µM

COc1cc(-c2c3c4cc(OC)c(OC(=O)CCC5CCCCC5)cc4oc(=O)c3n3ccc4cc(OC(=O)CCC5CCCCC5)c(OC)cc4c23)ccc1OC(=O)CCC1CCCCC1 [Compound 12]
GI50 (HeLa-APL; HELA-APL, GI=growth inhibition): 3.66 µM | CC50 (HeLa-APL; [2]): 10.9 µM | IC (TGI) (HeLa-APL; [3]): 10.9 µM | GI50 (SK-BR-3; Homo sapiens, SK-BR-3, SK-BR-3): 0.698 µM | CC50 (SK-BR-3; Homo sapiens, SK-BR-3, SK-BR-3): 10.9 µM | IC (TGI) (SK-BR-3; [4]): 3.45 µM | GI50 (HeLa): 1.66 µM | CC50 (HeLa; [5]): 10.9 µM | IC (TGI) (HeLa; [1]): 7.5 µM | GI50 (IGROV; Homo sapiens): 1.42 µM | CC50 (IGROV; Homo sapiens): 8.01 µM | IC (TGI) (IGROV; [6]): 3.38 µM | GI50 (DU-145; Homo sapiens, DU-145, DU-145): 0.249 µM | CC50 (DU-145; Homo sapiens, DU-145, DU-145): 7.07 µM | IC (TGI) (DU-145; [7]): 1.43 µM | GI50 (A-549; Homo sapiens, A549, A-549): 1.2 µM | CC50 (A-549; Homo sapiens, A549, A-549): 10.9 µM | IC (TGI) (A-549; Homo sapiens, A549, A-549): 6.64 µM | GI50 (IGROV-ET; Homo sapiens): 10.9 µM | CC50 (IGROV-ET; Homo sapiens): 10.9 µM | IC (TGI) (IGROV-ET; [6]): 10.9 µM | GI50 (HT-29; Homo sapiens, HT-29, HT-29): 0.0811 µM | CC50 (HT-29; Homo sapiens, HT-29, HT-29): 10.9 µM | IC (TGI) (HT-29; [8]): 0.841 µM | GI50 (PANC-1; Homo sapiens, PANC-1, PANC-1): 1.62 µM | CC50 (PANC-1; Homo sapiens, PANC-1, PANC-1): 10.9 µM | IC (TGI) (PANC-1; [9]): 8.94 µM | GI50 (LoVo; Homo sapiens, LoVo): 1.83 µM | CC50 (LoVo; Homo sapiens, LoVo): 10.9 µM | IC (TGI) (LoVo; [10]): 7.41 µM | GI50 (SK-MEL-28; [11]): 1.77 µM | CC50 (SK-MEL-28; [11]): 10.9 µM | IC (TGI) (SK-MEL-28; [12]): 5.98 µM | GI50 (LoVo-Dox; Homo sapiens): 10.9 µM | CC50 (LoVo-Dox; Homo sapiens): 10.9 µM | IC (TGI) (LoVo-Dox; [6]): 10.9 µM
